# “And” between values parts separate entries of the source, which are not always exact repeats. Equal values may be shown once.
# Legend:
# ERβ = ERβ (Homo sapiens, UniProt Q92731); experiment: Luciferase reporter gene assay ERβ, HepG2
# Description: (§1) Gal4-LBD constructs of tested nuclear receptors have been used together with pGL4.31[luc2P/GAL4UAS/Hygro] luciferase reporter construct and pRL-TK Renilla expression vector (both from Promega, Hercules, USA) in HepG2 cells transfected with Lipofectamine 2000 or 3000 reagents. For GRα and FXR receptors, full-length expression vectors have been used with pGRE-luc or pFXRE-luc luciferase constructs. For the aryl hydrocarbon receptor (AhR), p1A1-luc construct was used with only pRL-TK vector for transfection normalization. A dual reporter assay (Promega, Hercules, USA) was used to analyze both firefly and Renilla luciferase activities.
# (§2) Gal4-LBD constructs of tested nuclear receptors have been used together with pGL5-luc luciferase reporter construct and pRL-TK Renilla expression vector in HepG2 cells transfected with Lipofectamine 2000 or 3000 reagents. For GRα and FXR receptors, full-length expression vectors have been used with pGRE-luc or pFXRE-luc luciferase constructs. For the aryl hydrocarbon receptor (AhR), p1A1-luc construct was used with only pRL-TK vector for transfection normalization. […] Bars represent means±S.D. (n=3).
# [1] = Chemical stability (shelf, DMSO stock) and solubility in solvents; format: physicochemical
# Description: 1. Biological half-life was investigated. But is MI-883 stable on the shelf? […]
# Our medicinal chemistry team analyzed the MI-883 sample that had been stored on the lab bench at […]
# compared to the freshly prepared sample (see Figure R1).
# In addition, the compound is stable for at least two years in dimethyl sulfoxide (DMSO) as we confirm using published protocols 1,2(see data in Table R1).
# Table 1: LC/MS data for MI-883 stability in DMSO solution
# Study protocol: Stability of MI-883 stock solution in DMSO after two years at -20°C A 10 mM solution of MI-883 was prepared in DMSO and divided into multiple aliquots in 2 mL cryovials.
# The samples were stored at -20°C for two years in a standard laboratory freezer. Mass spectrometric analysis was conducted using LC/MS (Sciex QTRAP 7500). Stability was determined based on three independently prepared 1 µM solutions from stored stock.
# DMSO stock solution at -20°C over two years. However, for critical pharmaceutical use, additional studies at different temperatures and under varied conditions (e.g., light exposure, humidity) may be necessary to fully assess long-term stability. […]
# We used several computational prediction tools to determine water […]
# μg/mL (0.9 μM) and 0.2 μg/mL (0.4 μM). Using QikProp tool (Schrödinger software package), the […]
# According to the ADMET Predictor software package […]
# predictions align with our observations and confirm the poor water solubility of MI-883, although we […]
# The compound is well soluble in methanol and can dissolve in ethanol up to a concentration of 30 mM. […]
# PPARδ/β = PPARδ/β (Homo sapiens, UniProt Q03181); experiment: Luciferase reporter gene assay PPARδ/β, HepG2
# Description: (§3) The luciferase reporter gene assays for FXR, LXRα, LXRβ, THα, GRα, PPARα, PPARδ/β, PPARγ, AhR, VD, ERα, ERβ and mouse Car are described in our recent paper[19]
# as §1, §2
# hERG potassium channel = hERG potassium channel (Homo sapiens, UniProt Q12809); experiment: Thallium flux FLIPR-based hERG assay; format: cell-based
# Description: Thallium flux FLIPR-based assay for the identification of hERG potassium channel inhibition
# PPARγ = PPARγ (Homo sapiens, UniProt P37231); experiment: Luciferase reporter gene assay PPARγ, HepG2
# Description: as §3, §1, §2
# HepaRG cells = experiment: RT-qPCR mRNA expression in differentiated HepaRG cells
# Description: HepaRG cells from Biopredic (Rennes, France) were cultivated and differentiated on the 12-well plates. […] Several batches of HepaRG KO CAR (CAR Knockout HepaRG™ Cells, MTOX1012-1VL, RRID:CVCL_B6AA) and PXR Knockout HepaRG™ Cells, MTOX1011-1VL, RRID:CVCL_B6AS) cells have been obtained from Sigma-Aldrich/Merck (Darmstadt, Germany) and cultivated according to the provider’s protocols. […] Experiments with HepaRG KO PXR and HepaRG KO CAR cells have been performed in duplicates at least in two independent experiments.
# RT-qPCR was used to examine gene expression in 2D and 3D PHH, HepaRG cells, or in mouse liver or intestine (ileum) samples as we have described before[60]–[62].
# All qRT-qPCR experiments including Trizol reagent (Life Technologies) total RNA isolation, reverse-transcription using a random hexaprimer, and the MMLV Reverse Transcriptase Kit (ThermoFisher Scientific) we have described before^19. qPCR was performed using TaqMan Fast Advanced Master Mix with TaqMan probes (ThermoFisher Scientific). […] The delta-delta method was used for gene expression quantification normalized to at least two reference genes. Three technical replicates were used for each reaction considering the MIQE guidelines. Data are presented as fold induction to vehicle-treated cells/animals.
# [2] = single agent 5: MI-883 5, Rif (5 μM) alone
# Sequence of PPARδ/β (Q03181 211-439 limits assumed): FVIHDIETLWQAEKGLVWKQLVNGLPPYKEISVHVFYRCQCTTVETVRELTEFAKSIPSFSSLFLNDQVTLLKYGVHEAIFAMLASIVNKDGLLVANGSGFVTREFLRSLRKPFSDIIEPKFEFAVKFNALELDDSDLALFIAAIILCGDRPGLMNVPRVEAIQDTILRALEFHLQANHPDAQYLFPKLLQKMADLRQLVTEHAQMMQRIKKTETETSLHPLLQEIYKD
# Sequence of ERβ (Q92731 264-498 limits assumed, species assumed): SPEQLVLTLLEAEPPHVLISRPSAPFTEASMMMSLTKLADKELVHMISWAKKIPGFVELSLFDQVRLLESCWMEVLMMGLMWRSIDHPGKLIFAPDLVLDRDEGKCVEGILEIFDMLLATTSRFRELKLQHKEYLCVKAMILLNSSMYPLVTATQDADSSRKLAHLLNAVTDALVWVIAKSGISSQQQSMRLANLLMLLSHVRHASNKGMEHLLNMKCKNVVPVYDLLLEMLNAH
# Sequence of hERG potassium channel (Q12809 whole entry): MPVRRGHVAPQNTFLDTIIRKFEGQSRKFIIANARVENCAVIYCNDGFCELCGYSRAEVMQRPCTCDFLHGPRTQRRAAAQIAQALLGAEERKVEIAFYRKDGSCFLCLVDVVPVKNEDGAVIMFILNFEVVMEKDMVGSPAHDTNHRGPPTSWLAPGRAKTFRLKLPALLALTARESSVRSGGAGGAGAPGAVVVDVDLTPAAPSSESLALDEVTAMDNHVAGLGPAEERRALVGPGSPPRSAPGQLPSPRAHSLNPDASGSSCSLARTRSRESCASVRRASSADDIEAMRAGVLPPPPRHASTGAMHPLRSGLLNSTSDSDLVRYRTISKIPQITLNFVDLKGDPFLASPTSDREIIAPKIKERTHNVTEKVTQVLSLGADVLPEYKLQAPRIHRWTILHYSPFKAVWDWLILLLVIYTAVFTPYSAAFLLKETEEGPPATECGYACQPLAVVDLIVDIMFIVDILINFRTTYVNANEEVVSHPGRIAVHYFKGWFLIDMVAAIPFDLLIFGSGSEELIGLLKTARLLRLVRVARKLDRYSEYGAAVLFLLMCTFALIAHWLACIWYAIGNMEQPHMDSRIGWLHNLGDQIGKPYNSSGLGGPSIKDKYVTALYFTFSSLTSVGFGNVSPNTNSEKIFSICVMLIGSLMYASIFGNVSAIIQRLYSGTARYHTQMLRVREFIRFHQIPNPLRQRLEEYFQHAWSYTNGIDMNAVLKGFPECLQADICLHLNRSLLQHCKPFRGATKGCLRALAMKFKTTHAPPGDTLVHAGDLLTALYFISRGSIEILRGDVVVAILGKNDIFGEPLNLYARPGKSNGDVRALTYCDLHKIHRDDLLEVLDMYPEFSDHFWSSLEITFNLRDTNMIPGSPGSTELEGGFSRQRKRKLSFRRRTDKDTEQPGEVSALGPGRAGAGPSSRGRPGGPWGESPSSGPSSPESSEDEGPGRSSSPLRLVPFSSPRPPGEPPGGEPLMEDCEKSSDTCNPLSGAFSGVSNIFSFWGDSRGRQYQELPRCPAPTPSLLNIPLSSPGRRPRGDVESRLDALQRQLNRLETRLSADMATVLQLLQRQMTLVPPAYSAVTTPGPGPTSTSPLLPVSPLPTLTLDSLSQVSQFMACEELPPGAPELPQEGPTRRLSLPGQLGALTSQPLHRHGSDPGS
# Sequence of PPARγ (P37231 238-503 limits assumed): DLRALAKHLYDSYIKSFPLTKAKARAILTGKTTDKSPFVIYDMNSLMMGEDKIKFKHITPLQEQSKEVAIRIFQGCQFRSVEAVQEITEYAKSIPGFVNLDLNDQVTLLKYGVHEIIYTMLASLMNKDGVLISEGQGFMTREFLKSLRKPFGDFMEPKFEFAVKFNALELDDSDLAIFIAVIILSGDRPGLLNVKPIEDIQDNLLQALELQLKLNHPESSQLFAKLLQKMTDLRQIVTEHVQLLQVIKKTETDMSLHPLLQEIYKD
compound,measurement,setting,value
"NC(=O)c1cc(Cn2cc(-c3c(-c4ccc(Cl)cc4)nc4cc(F)ccn34)nn2)ccc1Cl [MI-883, 2-chloro-5-((4-(2-(4-chlorophenyl)-7-fluoroimidazo[1,2-a]pyridin-3-yl)-1H-1,2,3-triazol-1-yl)methyl)benzamide]","NRs assays: ERbeta (relative to ctrl, replicates)",ERβ,0.84 and 0.86 and 0.88
same,solubility in methanol,[1],well soluble
same,LC/MS concentration of 1 µM solution from DMSO stock,[1]; 2 year at -20°C in DMSO,1.007 µM
same,decomposition on the lab bench at room temperature,"[1]; 6 months, HPLC/MS",no significant decomposition
same,water solubility,[1]; not experimentally determined,low water solubility
same,LC/MS concentration of 1 µM solution from DMSO stock,[1]; time 0,1.012 µM
same,"NRs assays: PPARd (relative to ctrl, replicates)",PPARδ/β,1.06 and 1.19 and 1.12
same,hERG IC50,hERG potassium channel,could not be defined
same,"hERG assay, inhibition of hERG potassium channel activity",hERG potassium channel,no significant inhibition up to 100 µM
same,"NRs assays: PPARy (relative to ctrl, replicates)",PPARγ,0.61 and 0.89 and 1.05
same,INSIG1 mRNA in HepaRG cells,HepaRG cells,significantly upregulated
same,LDLR mRNA in HepaRG cells,HepaRG cells,significant PXR-dependent upregulation
same,SREBF1 mRNA expression in HepaRG / KO cells,HepaRG cells,CAR-dependent downregulation
same,SREBF2 mRNA expression in HepaRG cells,HepaRG cells,no significant effect
same,HMGCR expression relative to control (replicates),HepaRG cells; MI-883 1 μM,0.8473 and 0.6697 and 1.095 and 1.161 and 1.262 and 0.6816
same,HMGCS2 expression relative to control (replicates),HepaRG cells; MI-883 1 μM,0.9842 and 0.7188 and 1.1212 and 1.322
same,PCSK9 expression relative to control (replicates),HepaRG cells; MI-883 1 μM,0.9984 and 0.8995 and 1.064 and 1.124
same,HMGCR expression relative to control (replicates),HepaRG cells; MI-883 1 μM + Rif (5 μM),1.453 and 0.9465 and 0.9544 and 1.191 and 1.542 and 0.8007
same,HMGCS2 expression relative to control (replicates),HepaRG cells; MI-883 1 μM + Rif (5 μM),0.681 and 1.013 and 0.6433 and 0.4816
same,PCSK9 expression relative to control (replicates),HepaRG cells; MI-883 1 μM + Rif (5 μM),0.8085 and 0.8006 and 1.133 and 0.9198
same,HMGCR expression relative to control (replicates),HepaRG cells; MI-883 5 μM,1.295 and 1.166 and 1.377 and 1.27 and 0.8404
same,HMGCS2 expression relative to control (replicates),HepaRG cells; MI-883 5 μM,0.5911 and 1.022
same,PCSK9 expression relative to control (replicates),HepaRG cells; MI-883 5 μM,0.6066 and 1.012
same,HMGCR expression relative to control (replicates),HepaRG cells; MI-883 5 μM + Rif (5 μM),1.005 and 1.538 and 1.592 and 1.152 and 1.312
same,HMGCS2 expression relative to control (replicates),HepaRG cells; MI-883 5 μM + Rif (5 μM),0.8846 and 0.5305
same,PCSK9 expression relative to control (replicates),HepaRG cells; MI-883 5 μM + Rif (5 μM),1.035 and 0.636
same,HMGCR expression relative to control (replicates),HepaRG cells; MI-883 10 μM,1.683 and 0.9974 and 1.042 and 1.481
same,HMGCS2 expression relative to control (replicates),HepaRG cells; MI-883 10 μM,0.4009 and 0.6268 and 0.831 and 0.8846
same,PCSK9 expression relative to control (replicates),HepaRG cells; MI-883 10 μM,0.6175 and 0.9465 and 1.014 and 0.9985
same,HMGCR expression relative to control (replicates),HepaRG cells; MI-883 10 μM + Rif (5 μM),1.336 and 1.4868 and 1.027 and 1.993
same,HMGCS2 expression relative to control (replicates),HepaRG cells; MI-883 10 μM + Rif (5 μM),0.9594 and 1.125 and 0.477 and 0.8873
same,PCSK9 expression relative to control (replicates),HepaRG cells; MI-883 10 μM + Rif (5 μM),1.314 and 0.9884 and 1.015 and 0.8211
same,HMGCR expression relative to control (replicates),HepaRG cells; MI-883 20 μM,1.186 and 1.442 and 1.1738
same,HMGCS2 expression relative to control (replicates),HepaRG cells; MI-883 20 μM,0.7901 and 0.8336 and 1.102
same,PCSK9 expression relative to control (replicates),HepaRG cells; MI-883 20 μM,0.9308 and 1.156 and 1.11
same,HMGCR expression relative to control (replicates),HepaRG cells; MI-883 20 μM + Rif (5 μM),0.8382 and 1.516 and 1.756
same,HMGCS2 expression relative to control (replicates),HepaRG cells; MI-883 20 μM + Rif (5 μM),1.0412 and 1.1415 and 0.9223
same,PCSK9 expression relative to control (replicates),HepaRG cells; MI-883 20 μM + Rif (5 μM),1.334 and 1.4007 and 1.046
same,"CYP7A1 mRNA fold (Fig. 3f,g sheet), replicates",HepaRG cells; MI-883 1,0.5746 and 0.6713 and 0.8972 and 0.7445
same,"INSIG1 mRNA fold (Fig. 3f,g sheet), replicates",HepaRG cells; MI-883 1,1.005 (2×) and 0.8339
same,"LDLR mRNA fold (Fig. 3f,g sheet), replicates",HepaRG cells; MI-883 1,1.161 and 1.262 and 0.9041 and 0.8572
same,"SREBF1 mRNA fold (Fig. 3f,g sheet), replicates",HepaRG cells; MI-883 1,0.7942 and 0.8996 and 0.7218
same,"SREBF2 mRNA fold (Fig. 3f,g sheet), replicates",HepaRG cells; MI-883 1,0.6439 and 0.7635 and 0.7748 and 1.065 and 0.7449 and 1.037
same,"mRNA fold, Fig. 3b sheet, first block (CYP3A4), replicates","HepaRG cells; MI-883 1 (µM), 24 h",0.8362 and 0.801 and 0.9683 and 1.172 and 0.7446
same,"mRNA fold, Fig. 3b sheet, second block (gene not given; CYP2B6), replicates","HepaRG cells; MI-883 1 (µM), 24 h",2.928 and 2.816 and 2.017 and 3.044 and 1.065
same,"mRNA fold, Fig. 3b sheet, first block (CYP3A4), replicates",HepaRG cells; MI-883 1 + Rif (5 μM),1.353 and 3.215 and 5.541
same,"mRNA fold, Fig. 3b sheet, second block (CYP2B6), replicates",HepaRG cells; MI-883 1 + Rif (5 μM),2.0016 and 2.546 and 5.3
same,"CYP7A1 mRNA fold (Fig. 3f,g sheet), replicates",HepaRG cells; MI-883 5,0.5588 and 0.4759 and 0.4175
same,"INSIG1 mRNA fold (Fig. 3f,g sheet), replicates",HepaRG cells; MI-883 5,1.268 and 1.368 and 1.1831
same,"LDLR mRNA fold (Fig. 3f,g sheet), replicates",HepaRG cells; MI-883 5,1.377 and 1.27 and 1.084
same,"SQLE mRNA fold (Fig. 3f,g sheet), replicates",HepaRG cells; MI-883 5,1.181 (2×) and 1.026
same,"SREBF1 mRNA fold (Fig. 3f,g sheet), replicates",HepaRG cells; MI-883 5,0.6652 and 0.6777 and 0.7568
same,"SREBF2 mRNA fold (Fig. 3f,g sheet), replicates",HepaRG cells; MI-883 5,0.5404 and 1.004 and 0.7053
same,"mRNA fold, Fig. 3b sheet, first block (CYP3A4), replicates",HepaRG cells; MI-883 5 + Rif (5 μM),1.354 and 1.7483 and 1.162
same,"mRNA fold, Fig. 3b sheet, second block (CYP2B6), replicates",HepaRG cells; MI-883 5 + Rif (5 μM),2.182 and 1.817
same,"CYP7A1 mRNA fold (Fig. 3f,g sheet), replicates",HepaRG cells; MI-883 10,0.4275 and 0.3155 and 0.5022 and 0.4393
same,"INSIG1 mRNA fold (Fig. 3f,g sheet), replicates",HepaRG cells; MI-883 10,1.223 and 1.042 and 1.225 and 1.172
same,"LDLR mRNA fold (Fig. 3f,g sheet), replicates",HepaRG cells; MI-883 10,1.481 and 1.183
same,"SQLE mRNA fold (Fig. 3f,g sheet), replicates",HepaRG cells; MI-883 10,1.043 and 1.272 and 0.888 and 1.111 and 1.1255
same,"SREBF1 mRNA fold (Fig. 3f,g sheet), replicates",HepaRG cells; MI-883 10,0.5595 and 0.8022 (2×) and 0.6597
same,"SREBF2 mRNA fold (Fig. 3f,g sheet), replicates",HepaRG cells; MI-883 10,0.6518 and 0.837 and 1.166 and 1.224 and 0.9179 and 0.9421
same,"mRNA fold, Fig. 3b sheet, first block (CYP3A4), replicates",HepaRG cells; MI-883 10,0.3642 and 0.6511 and 0.7047 and 0.8281 and 0.7972 and 0.5808
same,"mRNA fold, Fig. 3b sheet, second block (CYP2B6), replicates",HepaRG cells; MI-883 10,2.037 and 2.07 and 1.475 and 2.671 and 1.239 and 0.7631
same,"mRNA fold, Fig. 3b sheet, first block (CYP3A4), replicates",HepaRG cells; MI-883 10 + Rif (5 μM),0.875 and 1.224 and 1.6089 and 0.7778
same,"mRNA fold, Fig. 3b sheet, second block (CYP2B6), replicates",HepaRG cells; MI-883 10 + Rif (5 μM),1.519 and 3.467 and 2.287 and 1.0661
same,"CYP7A1 mRNA fold (Fig. 3f,g sheet), replicates",HepaRG cells; MI-883 20,0.3598 and 0.7856
same,"INSIG1 mRNA fold (Fig. 3f,g sheet), replicates",HepaRG cells; MI-883 20,1.146 and 1.273
same,"LDLR mRNA fold (Fig. 3f,g sheet), replicates",HepaRG cells; MI-883 20,1.442 and 1.216 and 1.519
same,"SQLE mRNA fold (Fig. 3f,g sheet), replicates",HepaRG cells; MI-883 20,1.646 and 1.048
same,"SREBF1 mRNA fold (Fig. 3f,g sheet), replicates",HepaRG cells; MI-883 20,0.7299 and 0.7553
same,"SREBF2 mRNA fold (Fig. 3f,g sheet), replicates",HepaRG cells; MI-883 20,1.072 and 1.4 and 1.1431
same,"mRNA fold, Fig. 3b sheet, first block (CYP3A4), replicates",HepaRG cells; MI-883 20,0.6466 and 0.6905 and 0.8398 and 0.439
same,"mRNA fold, Fig. 3b sheet, second block (CYP2B6), replicates",HepaRG cells; MI-883 20,1.395 and 1.4687 and 2.208 and 1.5457
same,"mRNA fold, Fig. 3b sheet, first block (CYP3A4), replicates",HepaRG cells; MI-883 20 + Rif (5 μM),0.5897 and 1.016
same,"mRNA fold, Fig. 3b sheet, second block (CYP2B6), replicates",HepaRG cells; MI-883 20 + Rif (5 μM),0.9269 and 2.43 and 1.46
same,CYP7A1 mRNA in HepaRG cells,HepaRG cells; MI-883: in the absence and presence of rifampicin,significant downregulation
same,rifampicin induction of SQLE mRNA in HepaRG cells,"HepaRG cells; MI-883 at 1 μM, SPA70",abrogated
same,"CYP2B6 mRNA, RT-qPCR, HepaRG (Fig. 1f), replicates","HepaRG cells; Phenobarbital 500 μM, CITCO 1 μM, MI 883 1 μM, ctrl = 1",4.75 and 4.15 and 4.1
same,ABCC4 and UGT1A1 genes in HepaRG cells,HepaRG cells; Supplementary Fig. 10,upregulated
same,"mRNA fold, Fig. 3b sheet, first block (CYP3A4), replicates",HepaRG cells; [2],0.6927 and 0.6641 and 0.6779
same,"mRNA fold, Fig. 3b sheet, second block (CYP2B6), replicates",HepaRG cells; [2],3.953 and 2.541 and 3.216
